Results published in patent US20040235866A1, “Lymphocytic activation inhibitor and remedial agent for autoimmune disease” (priority 2001, published 2004).
Where two headings read alike, the source gives them in different places.

Tests used:
[1] = test system: spleen lymphocytes cultured with PLP139-151; test: Inhibition effect for lymphocyte activation (antigen-specific division, 3H-thymidine uptake); format: cell-based; conditions: female SJL/J mouse spleen lymphocytes, PLP139-151 stimulation, 5 days culture, read-out: IC 50 (inhibition of antigen-specific division of the lymphocytes)
Source text: Immunizing a mounse with a partial peptide of a proteolipid protein (PLP), a central myelin protein, induces a chronic encephalomyelitis therein. Sampling lymphocytes from the spleen of the mouse and stimulating by an antigen in vitro allow the induction of antigen-specific activation and division of the lymphocyte. The effect of a drug to the reaction was examined to evaluate the inhibition effect of the drug for lymphocyte activation. Specifically, a female SJL/J mouse was immunized with an adjuvant containing a PLP partial peptide (PLP139-151) under ether anesthesia. On the day of immunization and 2 days thereafter, deactivated Bordetella pertussis (one billion/mouse) was intravenously administered. On 7th or 8th day after the immunization, the mouse was killed by ether anesthesia and then the spleen thereof was extracted to isolate spleen lymphocytes. […] The compound numbers are the same as those described in the previous list (hereinafter, the same).

mice = test: Successive 15-day administration to mice (toxicity observation); format: in vivo; conditions: 100 mg/kg and 200 mg/kg successively for 15 days
Source text: It is thus considered that the compound represented by the general formula (I) has low toxicity.

[2] = test system: experimental encephalomyelitis model (PLP peptide p139-151 immunized mouse); test: Effect in an experimental encephalomyelitis model; format: in vivo; conditions: female SJL/J mouse, 200 mg/kg orally from 5th day to 12th day after initial sensitization, FIG. 2
Protocol: 100 μl of a Freund's complete adjuvant (Difco, containing 0.6 mg/ml of M. tuberculosis H37Ra) containing the PLP peptide (p139-151, Toray Research Center) was subcutaneously injected to a female SJL/J mouse in the back thereof under ether anesthesia for immunization (initial sensitization). Two days after, deactivated Bordetella pertussis was intravenously injected in an amount of about one billion per mouse. Seven days after, immunization was conducted again with the antigen. Over several weeks thereafter, abnormalities in limbs, a tail, and righting reflexes were graded into scored levels and recorded. The subjective compound was orally administered in an amount of 200 mg/kg from 5th day to 12th day after the initial sensitization. In experiments, 12 mice were used for each of a control group and a drug-administered group.
Note that, the experimental encephalomyelitis model described above is a model in which a lymphocyte activated by reacting with an immunized PLP peptide causes an immunoreaction to induce encephalomyelitis, and is widely recognized as a model for evaluating a pharmacological effect of a compound having a lymphocyte activation inhibition effect (e.g., Agents and Actions, 27, 351-355 (1989); and Agents and Actions, 35, 79-84 (1992)).

[3] = test system: mouse collagen-induced arthritis; test: Effect on mouse collagen-induced arthritis; format: in vivo; conditions: DBA/1JN male mouse, FIG. 1
Protocol: A DBA/1JN male mouse (7 weeks of age) was sensitized by intracutaneously injecting in the tail part thereof with 0.1 ml of an emulsion solution obtained by mixing a 0.3% bovine-derived type II collagen solution with the same amount of a Freund's complete adjuvant. After 3 weeks after initial sensitization, a booster was conducted in a similar way to cause arthritis. The subjective compound was made into a solution (5 mg/ml) according to a general method, and the day of the booster and 3 days thereafter, the solution was intravenously administered in an amount of 10 ml/kg (50 mg/kg). In experiments, 8 mice were used for each of a control group and a drug-administered group. The condition of arthritis was evaluated macroscopically on limbs and graded into 5 score levels (0; normal, 1; flare on a finger joint, 2; slight edema on an entire leg, 3; edema on an entire leg, and 4; severe edema on an entire leg), to be shown as a total sum. […] The effect lasted even after the second administration and the inhibition effect was recognized even 36 days after the initial sensitization, i.e., 12 days after administration (FIG. 1). […]

SMILES | IC50 ([1]; Mus musculus, Lymphocyte) | also measured
N#Cc1cccc(S(=O)(=O)Nc2cccc3c(C#N)c[nH]c23)c1 [Compound 51, 3-Cyano-N-(3-cyano-1H-indol-7-yl)benzenesulfonamide] | 620 nM | Body weight (mice): dose-dependent weight increases; Toxicity observation (mice): no observation showing toxicity
N#Cc1c[nH]c2c(NS(=O)(=O)c3cccc(Cl)c3)cccc12 [Compound 17, 3-Chloro-N-(3-cyano-1H-indol-7-yl)benzenesulfonamide] | 440 nM | Body weight (mice): dose-dependent weight increases; Toxicity observation (mice): no observation showing toxicity; Onset of abnormality (limbs, tail, righting reflexes score) [2]: delayed expression of abnormality; Severity of abnormality (limbs, tail, righting reflexes score) [2]: alleviated the severity
NS(=O)(=O)c1ccc(S(=O)(=O)Nc2cccc3c(Cl)c[nH]c23)cc1 [Compound 19, N-(3-Chloro-1H-indol-7-yl)-4-sulfamoylbenzenesulfonamide] | 1830 nM | Effect on crisis and development of arthritis (arthritis score, total sum) ([3]; 50 mg/kg intravenously on the day of the booster and 3 days thereafter): obvious inhibition effect for the crisis and development of arthritis; Duration of the inhibition effect on arthritis, days after the initial sensitization ([3]; 50 mg/kg intravenously, i.e. 12 days after administration): ≥ 36 days
Nc1ccc(S(=O)(=O)Nc2cccc3c(Cl)c[nH]c23)cc1 [Compound 3, 4-Amino-N-(3-chloro-1H-indol-7-yl)benzenesulfonamide] | 2270 nM | –
N#Cc1ccc(S(=O)(=O)Nc2cccc3c(Cl)c[nH]c23)cc1 [Compound 28, 4-Cyano-N-(3-chloro-1H-indol-7-yl)benzenesulfonamide] | – | IC50 [1]: 2860 nM
CC(=O)N(C)c1ccc(S(=O)(=O)Nc2cccc3c(Cl)c[nH]c23)cc1 [Compound 79, N-(3-Chloro-1H-indol-7-yl)-4-(N-methylacetamido)-benzenesulfonamide] | 360 nM | –
CCS(=O)(=O)Nc1ccc(S(=O)(=O)Nc2cccc3c(Cl)c[nH]c23)cc1 [Compound 70, N-(3-Chloro-1H-indol-7-yl)-4-(ethanesulfonamido)-benzenesulfonamide] | 1400 nM | –
CS(=O)(=O)NCc1ccc(S(=O)(=O)Nc2cccc3c(Cl)c[nH]c23)cc1 [Compound 53, N-(3-Chloro-1H-indol-7-yl)-4-[(methanesulfonamido)methyl]-benzenesulfonamide] | 740 nM | –
CS(=O)(=O)Nc1ccc(S(=O)(=O)Nc2cccc3c(Cl)c[nH]c23)cc1 [Compound 4, N-(3-Chloro-1H-indol-7-yl)-4-(methanesulfonamido)-benzenesulfonamide] | 1430 nM | –
CNC(=O)c1ccc(S(=O)(=O)Nc2cccc3c(Cl)c[nH]c23)cc1 [Compound 72, N-(3-Chloro-1H-indol-7-yl)-4-(N-methylcarbamoyl)-benzenesulfonamide] | 1810 nM | –
NC(=O)c1ccc(S(=O)(=O)Nc2cccc3c(Cl)c[nH]c23)cc1 [Compound 29, 4-Carbamoyl-N-(3-chloro-1H-indol-7-yl)benzenesulfonamide] | 2020 nM | –
Cc1ccc(NS(=O)(=O)c2cccc(C#N)c2)c2[nH]cc(C#N)c12 [Compound 94, 3-Cyano-N-(3-cyano-4-methyl-1H-indol-7-yl)-benzenesulfonamide] | 250 nM | Body weight (mice): dose-dependent weight increases; Toxicity observation (mice): no observation showing toxicity
Nc1ccncc1S(=O)(=O)Nc1cccc2c(Cl)c[nH]c12 [Compound 33, 4-Amino-N-(3-chloro-1H-indol-7-yl)-3-pyridinesulfonamide] | 470 nM | –
NS(=O)(=O)Cc1ccc(S(=O)(=O)Nc2ccc(Cl)c3c(Cl)c[nH]c23)cc1 [Compound 77, N-(3,4-Dichloro-1H-indol-7-yl)-4-(sulfamoylmethyl)-benzenesulfonamide] | 980 nM | –
NS(=O)(=O)CCc1ccc(S(=O)(=O)Nc2cccc3c(Cl)c[nH]c23)cc1 [Compound 35, N-(3-Chloro-1H-indol-7-yl)-4-(2-sulfamoylethyl)-benzenesulfonamide] | 670 nM | –
N#Cc1c[nH]c2c(NS(=O)(=O)c3ccc(N)nc3)cccc12 [Compound 37, 6-Amino-N-(3-cyano-1H-indol-7-yl)-3-pyridinesulfonamide] | 640 nM | –
CCNS(=O)(=O)c1ccc(S(=O)(=O)Nc2cccc3c(Cl)c[nH]c23)cc1 [Compound 69, N-(3-Chloro-1H-indol-7-yl)-4-(N-ethylsulfamoyl)-benzenesulfonamide] | 590 nM | –
CS(=O)(=O)NCCc1ccc(S(=O)(=O)Nc2cccc3c(Cl)c[nH]c23)cc1 [Compound 62, N-(3-Chloro-1H-indol-7-yl)-4-[2-(methanesulfonamido)ethyl]-benzensulfonamide] | 580 nM | –
CS(=O)(=O)CCc1ccc(S(=O)(=O)Nc2cccc3c(Cl)c[nH]c23)cc1 [Compound 36, N-(3-Chloro-1H-indol-7-yl)-4-[2-(methylsulfonyl)ethyl]-benzenesulfonamide] | 780 nM | –
N#Cc1ccc(S(=O)(=O)Nc2cccc3c(Cl)c[nH]c23)cc1 [Compound 10, N-(3-Chloro-1H-indol-7-yl)-4-cyanobenzenesulfonamide] | – | IC50 [1]: 590 nM; Body weight (mice): dose-dependent weight increases; Toxicity observation (mice): no observation showing toxicity; Onset of abnormality (limbs, tail, righting reflexes score) [2]: delayed expression of abnormality; Severity of abnormality (limbs, tail, righting reflexes score) [2]: alleviated the severity
